We go through 14 molecules from US11840528B2 (Hoffmann-La Roche Inc., priority 2018, dated 2023).

In test [1] the target is T1, h-GABA-A α5β3γ2 (Homo sapiens, UniProt P18507+P31644). In words: [3H]flumazenil competition binding assay, membranes of HEK293 cells expressing GABAA receptors. As to conditions: displacement of [3H]-Flumazenil 0.5 nM, HEK293 cells expressing human receptors, mean of two determinations; Table 1. The gist of the method:
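Membranes from HEK293 cells transiently expressing human α5β3γ2 GABAA receptors, in Krebs-tris buffer pH 7.5, competed against [3H]flumazenil for 1 hour at 4° C to equilibrium. Bound radioactivity collected on GF/C filters and counted by liquid scintillation; Ki values are means of two determinations.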
In general terms: In a radioligand displacement assay an active substance lowers the binding of a labelled ligand.

Test [2] deals with T1, h-GABA-A α5β3γ2. In words: Two-electrode voltage clamp electrophysiology in Xenopus laevis oocytes expressing GABAA receptors, modulation of GABA EC20 current. The class given is cell-based. Set-up: host or cells: Xenopus laevis oocytes micro-injected with RNA transcripts of the subunits. As to conditions: Table 1; for Efficacy (GABA) %: % modulation of GABA EC20 = 100*(Fold increase-1); for Fold increase h-GABA-A α5β3γ2 oocyte: test compound at approx. 30 fold its Ki, GABA at EC20. The gist of the method:
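Human α5β3γ2 GABAA receptors were expressed in Xenopus oocytes by RNA injection, with γ2 RNA 5–10-fold higher, and recorded 3–5 days later by two-electrode voltage clamp at −80 mV at room temperature. The test compound, at about 30× its Ki, was co-applied during a second GABA EC20 pulse. Efficacy is the extremum of the point-by-point ratio to the first response, expressed as 100*(Fold increase−1).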

By Ki is commonly meant a measure of affinity in units of concentration, obtained from inhibition or displacement. The low end stands for tighter binding, the high end for weaker binding. `Cc1nonc1N1CCN(c2cnn(Cc3c(-c4ccc(Cl)nc4)noc3C)c(=O)c2)CC1` [Example 280, 2-((3-(6-chloropyridin-3-yl)-5-methylisoxazol-4-yl)methyl)-5-(4-(4-methyl-1,2,5-oxadiazol-3-yl)piperazin-1-yl)pyridazin-3(2H)-one]: affinity on h-GABA-A α5β3γ2 [1] was put at a Ki of 7.5 nM. Besides, on h-GABA-A α5β3γ2 [2], the “Efficacy (GABA) %” value was found to be 166% and the “Fold increase h-GABA-A α5β3γ2 oocyte” value came to 2.66.

On to `COC1CN(c2cnn(Cc3c(-c4ccc(C)nc4)noc3C)c(=O)c2)C1` [Example 104, 5-(3-methoxyazetidin-1-yl)-2-[[5-methyl-3-(6-methyl-3-pyridyl)isoxazol-4-yl]methyl]pyridazin-3-one], for which the Ki at h-GABA-A α5β3γ2 [1] amounted to 22.9 nM. At h-GABA-A α5β3γ2 [2], the “Efficacy (GABA) %” value was determined as 134% and the “Fold increase h-GABA-A α5β3γ2 oocyte” value is on record as 2.34.

Molecule `COC1CCN(c2cnn(Cc3c(-c4ccc(C)nc4)noc3C)c(=O)c2)CC1` [Example 139, 5-(4-methoxy-1-piperidyl)-2-[[5-methyl-3-(6-methyl-3-pyridyl)isoxazol-4-yl]methyl]pyridazin-3-one] had a Ki at h-GABA-A α5β3γ2 [1] of 19.3 nM. Besides, on h-GABA-A α5β3γ2 [2], the “Efficacy (GABA) %” value was determined as 132% and the “Fold increase h-GABA-A α5β3γ2 oocyte” value is 2.32.

`Cc1ccc(-c2noc(C)c2Cn2ncc(N3CC4(CCCO4)C3)cc2=O)nn1` [Example 171, 2-[[5-methyl-3-(6-methylpyridazin-3-yl)isoxazol-4-yl]methyl]-5-(5-oxa-2-azaspiro[3.4]octan-2-yl)pyridazin-3-one] returned a Ki at h-GABA-A α5β3γ2 [1] of 4.2 nM. Besides, on h-GABA-A α5β3γ2 [2], the “Efficacy (GABA) %” value is on record as 80% and the “Fold increase h-GABA-A α5β3γ2 oocyte” value was 1.8.

`Cc1ccc(-c2noc(C)c2Cn2ncc(-c3ccnc(N(C)C)c3)cc2=O)cn1` [Example 156, 5-(2-(dimethylamino)pyridin-4-yl)-2-((5-methyl-3-(6-methylpyridin-3-yl)isoxazol-4-yl)methyl)pyridazin-3(2H)-one] registered a Ki on h-GABA-A α5β3γ2 [1] of 2.6 nM. On h-GABA-A α5β3γ2 [2], the “Efficacy (GABA) %” value is 66% and the “Fold increase h-GABA-A α5β3γ2 oocyte” value stood at 1.66.

The molecule `Cc1ccc(-c2noc(C)c2Cn2ncc(N3CC(Oc4ccc(F)cc4)C3)cc2=O)cn1` [Example 123, 5-[3-(4-fluorophenoxy)azetidin-1-yl]-2-[[5-methyl-3-(6-methyl-3-pyridyl)isoxazol-4-yl]methyl]pyridazin-3-one] registered a Ki at h-GABA-A α5β3γ2 [1] of 18.6 nM. On h-GABA-A α5β3γ2 [2], the “Efficacy (GABA) %” value is given as 152% and the “Fold increase h-GABA-A α5β3γ2 oocyte” value was 2.52.

`Cc1ccc(-c2noc(C)c2Cn2ncc(-c3cnn(CC(F)F)c3)cc2=O)cn1` [Example 153, 5-(1-(2,2-difluoroethyl)-1H-pyrazol-4-yl)-2-((5-methyl-3-(6-methylpyridin-3-yl)isoxazol-4-yl)methyl)pyridazin-3(2H)-one]: the Ki on h-GABA-A α5β3γ2 [1] turned out to be 24.2 nM. Besides, at h-GABA-A α5β3γ2 [2], the “Efficacy (GABA) %” value is given as 166% and the “Fold increase h-GABA-A α5β3γ2 oocyte” value is given as 2.66.

In turn, `CO[C@H]1COC2(C1)CN(c1cnn(Cc3c(-c4ccc(C(F)(F)F)nc4)noc3C)c(=O)c1)C2` [Example 237, 5-[(7R)-7-methoxy-5-oxa-2-azaspiro[3.4]octan-2-yl]-2-[[5-methyl-3-[6-(trifluoromethyl)-3-pyridyl]isoxazol-4-yl]methyl]pyridazin-3-one] yielded a Ki at h-GABA-A α5β3γ2 [1] of 5.8 nM. At h-GABA-A α5β3γ2 [2], the “Efficacy (GABA) %” value worked out at 147% and the “Fold increase h-GABA-A α5β3γ2 oocyte” value turned out to be 2.47.

`CCOC1CN(c2cnn(Cc3c(-c4ccc(C)nc4)noc3C)c(=O)c2Cl)C1` [Example 268, 4-chloro-5-(3-ethoxyazetidin-1-yl)-2-((5-methyl-3-(6-methylpyridin-3-yl)isoxazol-4-yl)methyl)pyridazin-3(2H)-one] yielded a Ki on h-GABA-A α5β3γ2 [1] of 16.6 nM. Besides, at h-GABA-A α5β3γ2 [2], the “Efficacy (GABA) %” value is 184% and the “Fold increase h-GABA-A α5β3γ2 oocyte” value is 2.84.

At h-GABA-A α5β3γ2 [1], `Cc1onc(-c2ccc(C3CC3)nc2)c1Cn1ncc(N2CC3(C2)CC(F)(F)CO3)cc1=O` [Example 260, 2-((3-(6-cyclopropylpyridin-3-yl)-5-methylisoxazol-4-yl)methyl)-5-(7,7-difluoro-5-oxa-2-azaspiro[3.4]octan-2-yl)pyridazin-3(2H)-one] registered an inhibition constant (Ki) of 3.7 nM. For the same molecule, on h-GABA-A α5β3γ2 [2], the “Efficacy (GABA) %” value is reported as 123% and the “Fold increase h-GABA-A α5β3γ2 oocyte” value is given as 2.23.

As to `Cc1onc(-c2ncc(C(F)(F)F)cn2)c1Cn1ncc(N2CC3(CCC(F)CO3)C2)cc1=O` (single isomer, unassigned) [Example 332], on h-GABA-A α5β3γ2 [1], the inhibition constant Ki amounted to 2.6 nM. Moreover, at h-GABA-A α5β3γ2 [2], the “Efficacy (GABA) %” value was determined as 65% and the “Fold increase h-GABA-A α5β3γ2 oocyte” value came out at 1.65.

Turning to `CCOc1ccc(-c2cnn(Cc3c(-c4ccc(C)nc4)noc3C)c(=O)c2)cn1` [Example 151, 5-(6-ethoxypyridin-3-yl)-2-((5-methyl-3-(6-methylpyridin-3-yl)isoxazol-4-yl)methyl)pyridazin-3(2H)-one], the Ki on h-GABA-A α5β3γ2 [1] came to 27.2 nM. Also, on h-GABA-A α5β3γ2 [2], the “Efficacy (GABA) %” value is recorded as 119% and the “Fold increase h-GABA-A α5β3γ2 oocyte” value is 2.19.

In turn, `CO[C@@H]1COC2(C1)CN(c1cnn(Cc3c(-c4ccc(C)nc4)noc3C)c(=O)c1)C2` [Example 133, 5-[(7S)-7-methoxy-5-oxa-2-azaspiro[3.4]octan-2-yl]-2-[[5-methyl-3-(6-methyl-3-pyridyl)isoxazol-4-yl]methyl]pyridazin-3-one] displayed an inhibitory constant (Ki) on h-GABA-A α5β3γ2 [1] of 81.2 nM. On h-GABA-A α5β3γ2 [2], the “Efficacy (GABA) %” value worked out at 172% and the “Fold increase h-GABA-A α5β3γ2 oocyte” value came out at 2.72.

With `Cc1onc(-c2ccc(Cl)nc2)c1Cn1ncc(N2C[C@@H](O)[C@H]2C)cc1=O` [Example 289, 2-((3-(6-chloropyridin-3-yl)-5-methylisoxazol-4-yl)methyl)-5-((2R,3R)-3-hydroxy-2-methylazetidin-1-yl)pyridazin-3(2H)-one], the affinity on h-GABA-A α5β3γ2 [1], expressed as Ki, was 2.2 nM. For the same molecule, at h-GABA-A α5β3γ2 [2], the “Efficacy (GABA) %” value is given as 68% and the “Fold increase h-GABA-A α5β3γ2 oocyte” value was determined as 1.68.
